Test results taken from paper PMC4657974, “Positive Allosteric Modulation of Kv Channels by Sevoflurane: Insights into the Structural Basis of Inhaled Anesthetic Action” (PLoS ONE, 2015).

Columns and labels:
Type in all cases: cell-based
K-Shaw2 [1] = biological target: T1, K-Shaw2 (Drosophila melanogaster, UniProt P17972); assay: two-electrode voltage clamp, Xenopus oocytes, Hill fit; conditions: inhibition; pH 7.4; 21-23 °C; voltage not given; read-out: K 1; cited from earlier work
T1 construct: gene Shaw; full-length channel, homotetramer, expressed in Xenopus oocytes from cRNA
T1 sequence (P17972 1-498): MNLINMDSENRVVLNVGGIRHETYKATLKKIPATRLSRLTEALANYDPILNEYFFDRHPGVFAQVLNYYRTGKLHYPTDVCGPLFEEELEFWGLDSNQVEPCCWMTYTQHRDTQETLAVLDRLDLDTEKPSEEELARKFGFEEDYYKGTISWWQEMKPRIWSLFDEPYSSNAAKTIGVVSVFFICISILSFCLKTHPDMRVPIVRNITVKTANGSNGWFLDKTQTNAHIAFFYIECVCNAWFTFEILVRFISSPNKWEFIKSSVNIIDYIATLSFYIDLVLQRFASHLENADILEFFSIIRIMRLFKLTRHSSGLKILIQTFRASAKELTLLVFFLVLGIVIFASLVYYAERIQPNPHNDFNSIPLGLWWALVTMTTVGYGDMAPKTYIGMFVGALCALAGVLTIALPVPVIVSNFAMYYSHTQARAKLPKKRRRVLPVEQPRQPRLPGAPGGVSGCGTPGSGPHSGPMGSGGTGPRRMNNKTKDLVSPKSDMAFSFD
Source text: two-electrode voltage clamp, Xenopus oocytes, Hill fit on K-Shaw2

ΔT1-K-Shaw2 = biological target: T2, ΔT1-K-Shaw2 (Drosophila melanogaster, UniProt P17972, DEL2-155); assay: as above; conditions: read-out: K 1
T2 construct: gene Shaw; T1 domain deleted (lacks residues 2-155), homotetramer, expressed in Xenopus oocytes
T2 sequence (P17972 with tags, fused parts or gaps DEL2-155): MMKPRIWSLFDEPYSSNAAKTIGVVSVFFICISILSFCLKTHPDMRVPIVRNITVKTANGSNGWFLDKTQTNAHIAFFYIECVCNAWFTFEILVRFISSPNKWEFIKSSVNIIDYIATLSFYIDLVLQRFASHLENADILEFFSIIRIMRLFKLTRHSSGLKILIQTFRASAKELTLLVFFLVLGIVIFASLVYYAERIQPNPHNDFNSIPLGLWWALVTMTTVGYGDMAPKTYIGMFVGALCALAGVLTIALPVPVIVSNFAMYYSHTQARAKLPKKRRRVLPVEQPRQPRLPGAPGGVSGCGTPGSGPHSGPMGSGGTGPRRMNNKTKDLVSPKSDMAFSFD
Source text: two-electrode voltage clamp, Xenopus oocytes, Hill fit on ΔT1-K-Shaw2

K-Shaw2 [2] = biological target: T1, K-Shaw2; assay: two-electrode voltage clamp, Xenopus oocytes, double Hill fit; conditions: read-out: K 1
Source text: two-electrode voltage clamp, Xenopus oocytes, double Hill fit on K-Shaw2 | Solid line is the best-fit double Hill equation to the K-Shaw2 data

Row | EC50 (K-Shaw2 [2]) [µM] | Compound | IC50 (K-Shaw2 [1]) [µM] | IC50 (ΔT1-K-Shaw2) [µM]
1 |  | ClC(Cl)Cl [chloroform] | 700 | 
2 |  | FC(F)(F)C(Cl)Br (centres unmarked) [halothane] | 260 | 380
3 |  | FC(F)OC(Cl)C(F)(F)F (centres unmarked) [isoflurane] | 1690 | 
4 |  | CCCCO [n-butanol] | 10100 | 16400
5 |  | CC(C)c1cccc(C(C)C)c1O [propofol] | 60 | 
6 | 80 | FCOC(C(F)(F)F)C(F)(F)F [sevoflurane] |  | 
